Laboratory results published in US11187690B2, “Synthetic receptors for hydrosulfide” (University of Oregon, priority 2016, dated 2021).

How the values were obtained:
[1] = 1H NMR titration with NBu4SH (HS^− binding); conditions: 10% DMSO-d6/CD3CN; for selectivity for HS^− over Cl^−: 1H NMR titration data
Method: To investigate whether HS^− is a suitable anionic guest for compounds 1-3, we titrated NBu4SH into 0.5-1.0 mM solution of each host in 10% DMSO-d6/CD3CN and monitored the titrations by ^1H NMR spectroscopy. […] For example, upon addition of HS^− to a 0.988 mM solution of 1, the aryl CHa shifted from 7.99 to 9.24 ppm, and the NHb and NHc urea protons shift downfield from 7.94 and 8.92 to 8.63 and 11.18 ppm, respectively. […] We also confirmed that the observed changes in the NMR spectra upon HS^− addition were not merely due to deprotonation of the urea NH groups. […] Titration data of HS^− with the host fit to simple 1:1 binding isotherm models, and a new, upfield-shifted peak appears for bound hydrosulfide.
(§1) The higher selectivity is likely due to the pyridine lone pair acting as a hydrogen bond acceptor, which provides an additional stabilizing interaction for HS^− and a destabilizing interaction for Cl^−. The phenyl core of host 1 donates a hydrogen bond to both anionic guests, resulting in decreased selectivity for hydrosulfide, even if this CH hydrogen bond is an important component to the high overall binding energy.

[2] = UV-Vis titration with NBu4Cl in MeCN (Cl^− binding)
Method: (§2) To further investigate the difference in anion selectivity, binding constants were also measured at lower concentrations by UV-Vis spectroscopy in MeCN; the data are summarized in Table 1.

[3] = 1H NMR comparison titration with NBu4Cl (Cl^− binding); conditions: 10% DMSO-d6/CD3CN
Excerpt: as §1

[4] = UV-Vis titration with NBu4SH in MeCN (HS^− binding); conditions: for HS^− binding constant: no DMSO co-solvent, 10 μM host
Method: as §2
We expected that removal of the DMSO co-solvent would increase the observed binding affinities since acetonitrile is a slightly less competitive solvent (especially as a hydrogen bond acceptor).

[5] = 13C{1H} NMR check of alkyne reactivity toward HS^−; format: physicochemical; conditions: 2.3 mM host, 10 equivalents of HS^−
[6] = Reversibility of HS^− binding (NBu4SH then Zn(OAc)2, 1H NMR); conditions: hydrogen-bond binding; for 1: 1.0 mM in 10% DMSO-d6/CD3CN, 2 equiv NBu4SH, 4 equiv Zn(OAc)2, 5 more equiv NBu4SH

HS^− ΔG [1] | selectivity for HS^− over Cl^− [1] | Cl^− ΔG [2] | Cl^− ΔG [3] | HS^− ΔG [4] | HS^− binding constant ([4]; UV-Vis) | reactivity of host alkynes toward HS^− [5] | reversibility of HS^− binding [6] | Structure (SMILES) | selectivity HS^−:Cl^− ([4]; UV-Vis)
-4.25 kcal/mol | 6 fold | -4.20 kcal/mol | -3.19 kcal/mol | -6.07 kcal/mol | ~25,000 M^−1 | – | – | CC(C)(C)c1ccc(NC(=O)Nc2ccccc2)c(C#Cc2cccc(C#Cc3cc(C(C)(C)C)ccc3NC(=O)Nc3ccccc3)n2)c1 [Host 3] | –
-5.05 kcal/mol | 2.8 fold | -6.18 kcal/mol | -4.43 kcal/mol | -6.76 kcal/mol | 90,300 M^−1 | alkynes were unreactive toward HS^− | confirming the reversibility of binding | COc1ccc(NC(=O)Nc2ccc(C(C)(C)C)cc2C#Cc2cccc(C#Cc3cc(C(C)(C)C)ccc3NC(=O)Nc3ccc(OC)cc3)c2)cc1 [Host 1] | remained similar to the 10% DMSO-d6/CD3CN system
-4.15 kcal/mol | 6 fold | -4.35 kcal/mol | -3.19 kcal/mol | -5.86 kcal/mol | ~25,000 M^−1 | – | – | COc1ccc(NC(=O)Nc2ccc(C(C)(C)C)cc2C#Cc2cccc(C#Cc3cc(C(C)(C)C)ccc3NC(=O)Nc3ccc(OC)cc3)n2)cc1 [Host 2] | –
